Laboratory results: patent US20140137294A1, “GLUCOSINOLATE TRANSPORTER PROTEIN AND USES THEREOF” (UNIVERSITY OF COPENHAGEN, priority 2010, published 2014)

Columns and labels:
AtGTR2 [1] = molecular target: T1, AtGTR2 (Arabidopsis thaliana, UniProt Q9LV10); experiment: Substrate-induced currents in voltage-clamped Xenopus oocytes expressing AtGTR2; type: cell-based
T1 construct: expressed in transfected cells; host or cells: Xenopus oocytes injected with in vitro transcribed cRNA (vector pNB1u)
T1 sequence (Q9LV10 1-616): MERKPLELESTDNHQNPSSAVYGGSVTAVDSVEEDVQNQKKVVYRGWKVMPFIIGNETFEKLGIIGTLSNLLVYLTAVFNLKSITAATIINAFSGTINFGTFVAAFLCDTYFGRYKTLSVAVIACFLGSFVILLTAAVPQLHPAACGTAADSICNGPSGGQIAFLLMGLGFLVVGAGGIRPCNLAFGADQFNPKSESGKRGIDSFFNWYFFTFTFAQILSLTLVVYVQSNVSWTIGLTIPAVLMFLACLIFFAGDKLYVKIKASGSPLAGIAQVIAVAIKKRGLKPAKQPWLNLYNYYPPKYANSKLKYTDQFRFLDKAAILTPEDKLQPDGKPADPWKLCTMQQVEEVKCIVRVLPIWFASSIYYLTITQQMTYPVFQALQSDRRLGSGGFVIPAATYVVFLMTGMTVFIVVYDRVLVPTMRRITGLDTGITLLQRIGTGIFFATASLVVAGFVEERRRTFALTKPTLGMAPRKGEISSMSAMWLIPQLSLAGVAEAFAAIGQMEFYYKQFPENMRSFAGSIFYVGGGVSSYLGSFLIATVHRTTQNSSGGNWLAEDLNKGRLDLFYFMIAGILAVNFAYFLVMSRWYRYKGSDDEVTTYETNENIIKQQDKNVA
Protocol: FIG. 3: Biochemical analysis of AtGTR1 and 2 mediated GSL transport in Xenopus oocytes. A and B, pH dependence of AtGTR-mediated GSL transport. A, AtGTR2 mediated 4-MTB uptake measured by LC-MS analysis of oocyte extracts, n=3 oocytes. B, AtGTR1 currents induced by 1 mM 4-MTB were measured at different membrane potentials at pH 5 ([…]), pH 6 (♦), and pH 7 (▴). Currents were normalized to the current induced at pH 5 at −60 mV, error bars are SD, n=4 oocytes. C and D, kinetic analysis of AtGTR-mediated glucosinolate transport. Normalized glucosinolate dependent currents at a membrane potential of −60 mV are plotted against 4-MTB concentrations, line indicates a fit of the Michaelis-Menten equation to the data; error bars are SD. For AtGTR1 (n=6 oocytes); For AtGTR2 (n=5 oocytes). Each oocyte-dataset were normalized to current elicited at 100 μM 4-MTB. E and F, substrate specificity of AtGTRs. E, AtGTR1 and AtGTR2 uptake of 0.04 mM C-14 labeled pOHBG at pH 5 in the presence of 2 mM 4-MTB, 2 mM NO3^−, 2 mM glucose+2 mM SO4^−−, or a solution of 2 mM Ala-His+2 mM Asp-Ala+2 mM Gly-Leu+2 mM Ala-Phe+2 mM Gly-Glu+2 mM Gly-Gly-Gly, error bars are SD, n=8 oocytes. F, AtGTR1 currents induced by endogenous and exogenous glucosinolates, representative positive, negative and neutral dipeptides and two tripeptides Currents were normalized to the current induced by 100 μM 4-MTB at pH 5 clamped at −60 mV, error bars are SD, n=4 oocytes.
When current recordings were performed on oocytes expressing, respectively, AtGTR1 and AtGTR2 exposed to 100 μM 4-MTB at pH 5 and voltage clamped at −50 mV elicited inward currents in the 30 nA range. This indicates a net influx of positive ions through the AtGTRs upon exposure to GSLs. GSL-induced inward currents were voltage dependent increasing with hyperpolarizing membrane potential within the range of +30 to −120 mV (FIGS. 3B and F). […] This observation was also noticeable in substrate dependent transport rates measured by direct LC-MS detection of GSL uptake.

AtGTR2 [2] = molecular target: T1, AtGTR2; experiment: Uptake of C14-labeled pOHBG in AtGTR2 expressing oocytes in presence of excess competitor; type: cell-based; settings: 50× excess unlabeled competitor, AtGTR2, pH 5
Protocol: FIG. 3: Biochemical analysis of AtGTR1 and 2 mediated GSL transport in Xenopus oocytes. A and B, pH dependence of AtGTR-mediated GSL transport. A, AtGTR2 mediated 4-MTB uptake measured by LC-MS analysis of oocyte extracts, n=3 oocytes. B, AtGTR1 currents induced by 1 mM 4-MTB were measured at different membrane potentials at pH 5 ([…]), pH 6 (♦), and pH 7 (▴). Currents were normalized to the current induced at pH 5 at −60 mV, error bars are SD, n=4 oocytes. C and D, kinetic analysis of AtGTR-mediated glucosinolate transport. […]
The substrate specificity investigations were extended to include substrates previously identified for the NRT/PTR transporter family namely di- and tripeptides and nitrate. […] However, perfusing with 1 mM NO3^− did result in currents but these amounted only to 1/10th of currents measured when perfusing with 100 μM 4-MTB (FIG. 3F). […]
For assays with radiolabeled substrates, single oocytes were ruptured in 100 μl 10% SDS in 4 ml scintillation vials by shaking for 20-30 minutes. 2.5 ml EcoScint™ scintillation fluid (National Diagnostics) was added, and imported compounds quantified by scintillation counting. For assays with unlabeled substrates, oocyte extracts were analysed by LC-MS. Oocytes were analyzed in batches of 5 oocytes per repetition. […]

Question: With `CSCCCC/C(=N/OS(=O)(=O)O)S[C@@H]1O[C@H](CO)[C@@H](O)[C@H](O)[C@H]1O` [4-MTB, 4-methylthiobutyl glucosinolate] as the molecule, how does the inward current (AtGTR2 [1]; 100 μM substrate, pH 5, voltage clamped at −50 mV, AtGTR2) read?
Answer: ~30 nA

Question: And the “substrate dependent transport rate at 500 μM, lower than at 250 μM and 1 mM” value (AtGTR2 [1]; AtGTR2, 500 μM 4-MTB)?
Answer: 25%

Question: And the Km (AtGTR2 [1]; pH 5, clamped at −60 mV, Michaelis-Menten, AtGTR2)?
Answer: 18.7 ± 4.2 µM

Question: What about the “effect on uptake of 40 μM C14-labeled pOHBG” value (AtGTR2 [2]) of the same molecule?
Answer: reduced the uptake of pOHBG to background levels
